Results as given in the NIST ThermoML archive (doi:10.1021/acs.jced.9b00415).

Assay: xn = mol fraction of the nth substance listed
Details: 102 kPa, Liquid; for viscosity: Concentric cylinders viscometry; for mass density: Vibrating tube method

CCCCn1cc[n+](C)c1.CS(=O)(=O)[O-] [1-butyl-3-methylimidazolium methanesulfonate] + CCCCn1cc[n+](C)c1.O=[N+]([O-])[O-]
Details	mass density [kg/m3]	viscosity [mPa·s]
303.15 K, x2 = 0.9	1154.3	180.1
308.15 K, x2 = 0.9	1151.1	135.4
313.15 K, x2 = 0.8	1149.3	113.6
313.15 K, x2 = 0.9	1147.9	104
318.15 K, x2 = 0.6	1150.5	103
318.15 K, x2 = 0.7	1148.5	97.85
318.15 K, x2 = 0.8	1146.2	88.38
318.15 K, x2 = 0.9	1144.7	81.49
323.15 K, x2 = 0.6	1147.3	80.7
323.15 K, x2 = 0.7	1145.4	77.05
323.15 K, x2 = 0.8	1143	70.03
323.15 K, x2 = 0.9	1141.6	64.96
328.15 K, x2 = 0.4	1146.9	70.76
328.15 K, x2 = 0.5	1145.4	66.57
328.15 K, x2 = 0.6	1144.1	64.37
328.15 K, x2 = 0.7	1142.2	61.72
328.15 K, x2 = 0.8	1139.9	56.42
328.15 K, x2 = 0.9	1138.5	52.61
333.15 K, x2 = 0.3	1144.9	59.13
333.15 K, x2 = 0.4	1143.8	56.85
333.15 K, x2 = 0.5	1142.2	53.7
333.15 K, x2 = 0.6	1141	52.18
333.15 K, x2 = 0.7	1139.1	50.22
333.15 K, x2 = 0.8	1136.8	46.14
333.15 K, x2 = 0.9	1135.4	43.23
338.15 K, x2 = 0.3	1141.8	48.04
338.15 K, x2 = 0.4	1140.6	46.37
338.15 K, x2 = 0.5	1139.1	43.99
338.15 K, x2 = 0.6	1137.9	42.9
338.15 K, x2 = 0.7	1136	41.44
338.15 K, x2 = 0.8	1133.7	38.25
338.15 K, x2 = 0.9	1132.3	35.99
343.15 K, x2 = 0.3	1138.6	39.58
343.15 K, x2 = 0.4	1137.5	38.34
343.15 K, x2 = 0.5	1136	36.52
343.15 K, x2 = 0.6	1134.8	35.74
343.15 K, x2 = 0.7	1132.9	34.63
343.15 K, x2 = 0.8	1130.6	32.11
343.15 K, x2 = 0.9	1129.3	30.32
348.15 K, x2 = 0.1	1138.3	34.98
348.15 K, x2 = 0.2	1136.8	34.5
348.15 K, x2 = 0.3	1135.5	33.03
348.15 K, x2 = 0.4	1134.4	32.1
348.15 K, x2 = 0.5	1132.9	30.69
348.15 K, x2 = 0.6	1131.7	30.13
348.15 K, x2 = 0.7	1129.9	29.28
348.15 K, x2 = 0.8	1127.6	27.25
348.15 K, x2 = 0.9	1126.2	25.81
353.15 K, x2 = 0.1	1135.2	29.38
353.15 K, x2 = 0.2	1133.6	29.04
353.15 K, x2 = 0.3	1132.4	27.88
353.15 K, x2 = 0.4	1131.3	27.17
353.15 K, x2 = 0.5	1129.8	26.08
353.15 K, x2 = 0.6	1128.6	25.68
353.15 K, x2 = 0.7	1126.8	25.02
353.15 K, x2 = 0.8	1124.5	23.36
353.15 K, x2 = 0.9	1123.2	22.2
358.15 K, x2 = 0.1	1132	24.94
358.15 K, x2 = 0.2	1130.5	24.71
358.15 K, x2 = 0.3	1129.3	23.79
358.15 K, x2 = 0.4	1128.2	23.23
358.15 K, x2 = 0.5	1126.8	22.38
358.15 K, x2 = 0.6	1125.6	22.09
358.15 K, x2 = 0.7	1123.8	21.57
358.15 K, x2 = 0.8	1121.5	20.21
358.15 K, x2 = 0.9	1120.2	19.26
363.15 K, x2 = 0.1	1128.9	21.39
363.15 K, x2 = 0.2	1127.4	21.27
363.15 K, x2 = 0.3	1126.2	20.51
363.15 K, x2 = 0.4	1125.1	20.04
363.15 K, x2 = 0.5	1123.7	19.36
363.15 K, x2 = 0.6	1122.5	19.18
363.15 K, x2 = 0.7	1120.7	18.76
363.15 K, x2 = 0.8	1118.5	17.63
363.15 K, x2 = 0.9	1117.2	16.86

CCCCn1cc[n+](C)c1.O=[N+]([O-])[O-] [1-butyl-3-methylimidazolium nitrate] + CCCCn1cc[n+](C)c1.[Cl-]
Details	mass density [kg/m3]	viscosity [mPa·s]
298.15 K, x1 = 0.8	1139.9	373.6
303.15 K, x1 = 0.8	1136.8	266.4
308.15 K, x1 = 0.8	1133.7	194.9
313.15 K, x1 = 0.5	1109.6	365.1
313.15 K, x1 = 0.6	1116.9	275.4
313.15 K, x1 = 0.8	1130.6	146
318.15 K, x1 = 0.2	–	721.3
318.15 K, x1 = 0.5	1106.6	262.7
318.15 K, x1 = 0.6	1113.9	201.5
318.15 K, x1 = 0.8	1127.6	111.7
323.15 K, x1 = 0.2	–	495.6
323.15 K, x1 = 0.4	1097.9	259.8
323.15 K, x1 = 0.5	1103.7	193.7
323.15 K, x1 = 0.6	1110.9	150.8
323.15 K, x1 = 0.8	1124.6	87.1
328.15 K, x1 = 0.2	1080.2	349.9
328.15 K, x1 = 0.4	1095	191.3
328.15 K, x1 = 0.5	1100.8	145.9
328.15 K, x1 = 0.6	1107.9	115.2
328.15 K, x1 = 0.8	1121.6	69.09
333.15 K, x1 = 0.1	1070.3	378.4
333.15 K, x1 = 0.2	1077.3	253.4
333.15 K, x1 = 0.4	1092	144
333.15 K, x1 = 0.5	1097.9	112
333.15 K, x1 = 0.6	1104.9	89.66
333.15 K, x1 = 0.8	1118.6	55.68
338.15 K, x1 = 0.1	1067.5	271.8
338.15 K, x1 = 0.2	1074.4	187.6
338.15 K, x1 = 0.4	1089.1	110.6
338.15 K, x1 = 0.5	1095	87.65
338.15 K, x1 = 0.6	1101.9	71.02
338.15 K, x1 = 0.8	1115.7	45.53
343.15 K, x1 = 0.1	1064.8	199.9
343.15 K, x1 = 0.2	1071.6	141.9
343.15 K, x1 = 0.4	1086.2	86.47
343.15 K, x1 = 0.5	1092.1	69.7
343.15 K, x1 = 0.6	1099	57.14
343.15 K, x1 = 0.8	1112.7	37.72
348.15 K, x1 = 0.1	1062.1	150.1
348.15 K, x1 = 0.2	1068.8	109.3
348.15 K, x1 = 0.4	1083.3	68.73
348.15 K, x1 = 0.5	1089.2	56.25
348.15 K, x1 = 0.6	1096.1	46.63
348.15 K, x1 = 0.8	1109.7	31.62
353.15 K, x1 = 0.1	1059.3	115
353.15 K, x1 = 0.2	1065.9	85.68
353.15 K, x1 = 0.4	1080.5	55.46
353.15 K, x1 = 0.5	1086.4	46.03
353.15 K, x1 = 0.6	1093.2	38.55
353.15 K, x1 = 0.8	1106.8	26.81
358.15 K, x1 = 0.1	1056.6	89.62
358.15 K, x1 = 0.2	1063.1	68.25
358.15 K, x1 = 0.4	1077.6	45.37
358.15 K, x1 = 0.5	1083.5	38.16
358.15 K, x1 = 0.6	1090.3	32.27
358.15 K, x1 = 0.8	1103.8	22.96
363.15 K, x1 = 0.1	1053.8	71.03
363.15 K, x1 = 0.2	1060.4	55.17
363.15 K, x1 = 0.4	1074.8	37.6
363.15 K, x1 = 0.5	1080.6	32.02
363.15 K, x1 = 0.6	1087.4	27.32
363.15 K, x1 = 0.8	1100.9	19.87

CCCCn1cc[n+](C)c1.CS(=O)(=O)[O-] [1-butyl-3-methylimidazolium methanesulfonate] + CCCCn1cc[n+](C)c1.[Cl-]
Details	mass density [kg/m3]	viscosity [mPa·s]
323.15 K, x1 = 0.3	1098.9	388.2
323.15 K, x1 = 0.4	1106.3	365.5
323.15 K, x1 = 0.5	1116.6	267.1
328.15 K, x1 = 0.1	1076.7	490.5
328.15 K, x1 = 0.2	1086.1	428.3
328.15 K, x1 = 0.3	1096.1	278.2
328.15 K, x1 = 0.4	1103.4	261.8
328.15 K, x1 = 0.5	1113.7	195.6
333.15 K, x1 = 0.1	1074	346.3
333.15 K, x1 = 0.2	1083.4	304.6
333.15 K, x1 = 0.3	1093.3	204.2
333.15 K, x1 = 0.4	1100.6	192.2
333.15 K, x1 = 0.5	1110.9	146.5
333.15 K, x1 = 0.6	1119.1	128
338.15 K, x1 = 0.1	1071.4	250.7
338.15 K, x1 = 0.2	1080.7	222
338.15 K, x1 = 0.3	1090.6	153.2
338.15 K, x1 = 0.4	1097.9	144.3
338.15 K, x1 = 0.5	1108.1	112.1
338.15 K, x1 = 0.6	1116.3	98.76
338.15 K, x1 = 0.7	1124.3	82.97
343.15 K, x1 = 0.1	1068.7	185.6
343.15 K, x1 = 0.2	1078	165.4
343.15 K, x1 = 0.3	1087.9	117.2
343.15 K, x1 = 0.4	1095.2	110.5
343.15 K, x1 = 0.5	1105.3	87.31
343.15 K, x1 = 0.6	1113.5	77.62
343.15 K, x1 = 0.7	1121.5	65.89
343.15 K, x1 = 0.8	1129.7	56.84
348.15 K, x1 = 0.1	1066.1	140.3
348.15 K, x1 = 0.2	1075.4	125.8
348.15 K, x1 = 0.3	1085.2	91.36
348.15 K, x1 = 0.4	1092.5	86.21
348.15 K, x1 = 0.5	1102.6	69.19
348.15 K, x1 = 0.6	1110.7	62.01
348.15 K, x1 = 0.7	1118.6	53.15
348.15 K, x1 = 0.8	1126.8	46.31
348.15 K, x1 = 0.9	1134.4	39.65
353.15 K, x1 = 0.1	1063.5	108.1
353.15 K, x1 = 0.2	1072.8	97.5
353.15 K, x1 = 0.3	1082.5	72.39
353.15 K, x1 = 0.4	1089.7	68.4
353.15 K, x1 = 0.5	1099.8	55.7
353.15 K, x1 = 0.6	1107.9	50.28
353.15 K, x1 = 0.7	1115.7	43.48
353.15 K, x1 = 0.8	1123.9	38.24
353.15 K, x1 = 0.9	1131.4	33.04
358.15 K, x1 = 0.1	1060.9	84.67
358.15 K, x1 = 0.2	1070.1	76.85
358.15 K, x1 = 0.3	1079.8	58.23
358.15 K, x1 = 0.4	1086.9	55.11
358.15 K, x1 = 0.5	1097	45.47
358.15 K, x1 = 0.6	1105	41.33
358.15 K, x1 = 0.7	1112.8	36.03
358.15 K, x1 = 0.8	1120.9	31.96
358.15 K, x1 = 0.9	1128.4	27.85
363.15 K, x1 = 0.1	1058.2	67.42
363.15 K, x1 = 0.2	1067.3	61.54
363.15 K, x1 = 0.3	1077	47.51
363.15 K, x1 = 0.4	1084.1	45.04
363.15 K, x1 = 0.5	1094.1	37.62
363.15 K, x1 = 0.6	1102.1	34.41
363.15 K, x1 = 0.7	1109.9	30.22
363.15 K, x1 = 0.8	1117.9	27.02
363.15 K, x1 = 0.9	1125.3	23.72
